As a reminder, the IC50 is the midpoint of a concentration-inhibition curve. A low value points to greater potency in that assay.

Consider one compound from ChEMBL document CHEMBL1148847, “Synthesis of 3-(1H-benzimidazol-2-yl)-5-isoquinolin-4-ylpyrazolo[1,2-b]pyridine, a potent cyclin dependent kinase 1 (CDK1) inhibitor” (Bioorg Med Chem Lett, 2007).

Assay [1] addresses Vascular endothelial growth factor receptor 2 (Homo sapiens, UniProt P35968). The experiment in a line: Inhibition of VEGFR2.
Assay [2] can be described thus: Inhibition of CDK1/Cyclin B by Flashplate assay. Further details: species or system Homo sapiens.

Chain of Vascular endothelial growth factor receptor 2 (P35968 whole entry): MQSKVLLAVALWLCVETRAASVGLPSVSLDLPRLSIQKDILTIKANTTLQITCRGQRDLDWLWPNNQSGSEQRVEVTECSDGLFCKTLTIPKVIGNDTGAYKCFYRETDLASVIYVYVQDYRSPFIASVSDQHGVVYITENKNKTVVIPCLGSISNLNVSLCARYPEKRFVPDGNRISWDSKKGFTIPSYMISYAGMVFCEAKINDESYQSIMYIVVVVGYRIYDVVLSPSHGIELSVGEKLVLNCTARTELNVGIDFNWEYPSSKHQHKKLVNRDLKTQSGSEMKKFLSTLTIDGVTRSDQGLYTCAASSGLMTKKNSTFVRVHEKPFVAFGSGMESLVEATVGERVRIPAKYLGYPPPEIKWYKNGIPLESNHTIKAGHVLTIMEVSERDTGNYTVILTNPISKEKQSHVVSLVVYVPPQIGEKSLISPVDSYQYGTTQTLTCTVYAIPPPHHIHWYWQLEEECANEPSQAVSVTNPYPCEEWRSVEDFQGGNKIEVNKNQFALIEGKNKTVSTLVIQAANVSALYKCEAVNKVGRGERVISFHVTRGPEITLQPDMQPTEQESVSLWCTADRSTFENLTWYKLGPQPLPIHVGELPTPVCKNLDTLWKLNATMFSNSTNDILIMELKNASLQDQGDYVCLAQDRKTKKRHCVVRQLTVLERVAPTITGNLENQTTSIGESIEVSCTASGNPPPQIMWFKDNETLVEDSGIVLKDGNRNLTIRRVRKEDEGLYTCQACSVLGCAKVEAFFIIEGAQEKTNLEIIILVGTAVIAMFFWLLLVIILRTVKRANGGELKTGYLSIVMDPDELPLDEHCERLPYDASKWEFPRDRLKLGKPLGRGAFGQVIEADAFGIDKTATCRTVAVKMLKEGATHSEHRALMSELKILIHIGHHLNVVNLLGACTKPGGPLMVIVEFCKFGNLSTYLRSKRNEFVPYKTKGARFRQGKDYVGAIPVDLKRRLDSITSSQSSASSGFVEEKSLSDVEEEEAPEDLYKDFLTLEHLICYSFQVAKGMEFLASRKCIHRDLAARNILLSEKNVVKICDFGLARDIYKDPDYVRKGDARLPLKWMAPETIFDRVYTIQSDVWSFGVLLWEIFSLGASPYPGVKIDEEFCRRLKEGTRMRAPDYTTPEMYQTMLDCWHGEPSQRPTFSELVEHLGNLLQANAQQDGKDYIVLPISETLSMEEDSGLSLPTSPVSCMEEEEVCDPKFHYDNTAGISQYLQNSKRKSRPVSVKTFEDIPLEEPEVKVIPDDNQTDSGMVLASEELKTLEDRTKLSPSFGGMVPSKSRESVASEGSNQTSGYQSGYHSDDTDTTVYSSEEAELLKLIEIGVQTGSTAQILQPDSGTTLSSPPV

Regarding `c1ccc2c(-c3cnc4[nH]nc(-c5nc6ccccc6[nH]5)c4c3)cncc2c1`, the IC50 amounted to 1460 nM in assay [1] and 23 nM in assay [2].
